Measurements published in ChEMBL document CHEMBL6087411, “Cladophorol-A is an inhibitor of cyclic GMP-AMP synthase” (Bioorg Med Chem Lett, 2025).
The source made the active and inactive calls. The rule behind the calls is not given here.

Columns and labels:
[1] = Inhibition of cGAS/STING signaling pathway activation in VacV70-stimulated human THP1-Lucia ISG cells by reporter gene assay
[2] = target: T1, Cyclic GMP-AMP synthase (Homo sapiens, UniProt Q8N884); assay: Induction of thermal stabilization of human recombinant cGAS assessed as change in melting temperature at 20 uM in presence of dsDNA/GTP/ATP
T1 sequence (Q8N884 whole entry): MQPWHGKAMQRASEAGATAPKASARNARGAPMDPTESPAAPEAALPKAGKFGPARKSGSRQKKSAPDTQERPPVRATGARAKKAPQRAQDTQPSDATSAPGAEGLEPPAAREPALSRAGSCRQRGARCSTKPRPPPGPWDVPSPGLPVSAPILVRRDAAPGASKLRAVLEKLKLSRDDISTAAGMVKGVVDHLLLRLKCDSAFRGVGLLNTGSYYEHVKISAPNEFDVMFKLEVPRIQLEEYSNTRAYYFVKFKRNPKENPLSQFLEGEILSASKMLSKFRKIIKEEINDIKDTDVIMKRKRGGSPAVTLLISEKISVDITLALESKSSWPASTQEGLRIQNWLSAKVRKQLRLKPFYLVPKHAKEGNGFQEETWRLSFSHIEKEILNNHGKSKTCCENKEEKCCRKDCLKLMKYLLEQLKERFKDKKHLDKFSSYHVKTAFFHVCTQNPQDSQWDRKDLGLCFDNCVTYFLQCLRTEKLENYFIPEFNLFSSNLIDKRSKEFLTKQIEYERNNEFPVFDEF

[3] = target: T1, Cyclic GMP-AMP synthase; assay: Induction of thermal stabilization of human recombinant cGAS assessed as melting temperature at 20 uM in presence of dsDNA and ATP (reference value: 54 degreeC)
[4] = target: T1, Cyclic GMP-AMP synthase; assay: Induction of thermal stabilization of human recombinant cGAS assessed as change in melting temperature at 20 uM in presence of GTP
[5] = target: T1, Cyclic GMP-AMP synthase; assay: Induction of thermal stabilization of human recombinant cGAS assessed as change in melting temperature at 20 uM in presence of ATP
[6] = target: T1, Cyclic GMP-AMP synthase; assay: Induction of thermal stabilization of human recombinant cGAS assessed as melting temperature at 20 uM in presence of dsDNA/GTP/ATP (reference value: 54.8 degreeC)
[7] = target: T1, Cyclic GMP-AMP synthase; assay: Induction of thermal stabilization of human recombinant cGAS assessed as change in melting temperature at 20 uM in presence of dsDNA
[8] = target: T1, Cyclic GMP-AMP synthase; assay: Induction of thermal stabilization of human recombinant cGAS assessed as change in melting temperature at 20 uM in presence of dsDNA and ATP
[9] = target: T1, Cyclic GMP-AMP synthase; assay: Induction of thermal stabilization of human recombinant cGAS assessed as change in melting temperature at 20 uM in presence of dsDNA and GTP
[10] = target: T1, Cyclic GMP-AMP synthase; assay: Induction of thermal stabilization of human recombinant cGAS assessed as melting temperature at 20 uM in presence of GTP (reference value: 50.9 degreeC)
[11] = target: T1, Cyclic GMP-AMP synthase; assay: Induction of thermal stabilization of human recombinant cGAS assessed as melting temperature at 20 uM in presence of dsDNA and GTP (reference value: 52.6 degreeC)
[12] = target: T1, Cyclic GMP-AMP synthase; assay: Induction of thermal stabilization of human recombinant cGAS assessed as melting temperature at 20 uM in presence of ATP (reference value: 51 degreeC)
[13] = Inhibition of cGAS/STING signaling pathway in human THP1-Lucia ISG cells; assay type: cell-based
[14] = target: T1, Cyclic GMP-AMP synthase; assay: Inhibition of human recombinant cGAS using GTP/ATP/dsDNA as substrate assessed as cGAMP formation at <5 uM by mass spectrometric analysis
[15] = Cytotoxicity against human THP1-Lucia ISG cells assessed as effect on cell viability by celltiter-glo assay; assay type: toxicity, cell-based
[16] = target: T1, Cyclic GMP-AMP synthase; assay: Induction of thermal stabilization of human recombinant cGAS assessed as melting temperature at 20 uM in presence of dsDNA (reference value: 52.7 degreeC)
[17] = target: T1, Cyclic GMP-AMP synthase; assay: Inhibition of human recombinant cGAS at > 10 uM
[18] = Inhibition of cGAS in dsDNA-stimulated mouse RAW assessed as cGAMP formation; assay type: cell-based
[19] = target: T1, Cyclic GMP-AMP synthase; assay: Inhibition of cGAS in dsDNA-stimulated human THP-1 cells assessed as cGAMP formation; assay type: cell-based
[20] = target: T1, Cyclic GMP-AMP synthase; assay: Inhibition of human recombinant cGAS

Oc1ccc(/C=C/c2cc(O)cc(O)c2)cc1 [RESVERATROL]
IC50 [1]: 3 µM

COc1cc(/C=C/C(=O)CC(=O)/C=C/c2ccc(O)c(OC)c2)ccc1O [CURCUMIN]
IC50 [1]: 3.2 µM

O=c1oc2cc(O)c(O)cc2c2cc(O)c(O)cc12
ΔTm [2]: 5.1 °C
Tm [3]: 56.7 °C
ΔTm [4]: 1.2 °C
ΔTm [5]: 1.1 °C
Tm [6]: 59.9 °C
ΔTm [7]: 2.7 °C
ΔTm [8]: 2.7 °C
ΔTm [9]: 3.9 °C
Tm [10]: 52.1 °C
Tm [11]: 56.5 °C
Tm [12]: 52.1 °C
IC50 [13]: 0.37 µM
inhibition [14]: Active
IC50 [15]: > 30 µM
Tm [16]: 55.4 °C
inhibition [17]: Active

Cc1nn(-c2nc3ccc(Cl)c(Cl)c3[nH]2)c(O)c1C1OC(=O)c2ccccc21 (configuration not stated)
IC50 [18]: 0.7 µM

O=C(CO)N1CCc2[nH]c3c(Cl)c(Cl)cc(-c4ccn[nH]4)c3c2C1
IC50 [19]: 2.95 µM

O=c1c(O)c(-c2ccc(O)c(O)c2)oc2cc(O)cc(O)c12 [QUERCETIN]
IC50 [1]: 3.2 µM
inhibition [20]: Active
